Results published in patent publication US20160200762A1, “Bioactive polypeptide DELQ and preparation method as well as application thereof” (SHANGHAI JIAOTONG UNIVERSITY, priority 2012, published 2016).
Where a SMILES comes first, the peptide text is derived from it.

What was measured:
[1] = in vitro antioxidant activity detection with the [DPPH.] method (radical removing rate); format: biochemical
Description: (1) Preparing 1 mmol/L [DPPH.] Methanol Solution:
Weighting […] [DPPH.] with the analytical balance and dissolving in 1 ml methanol solution for obtaining 1 mmol/L [DPPF.] methanol solution, storing with tinfoil for avoiding light, wherein the [DPPF.] methanol solution is prepared before use.
(2) Standard Curve Detection of [DPPH.] Methanol Solution:
Adding 100 μL [DPPH.] methanol standard curve sample into the 96-hole cell culturing plate according to a Table 2, waiting for 90 min at a room temperature, detecting absorbance values at 517 nm with the microplate reader.
Accordingly, curves are fitted and a regression equation is calculated with Excel, and results thereof are shown in FIG. 8 (the regression equation: y=−0.192x+0.2271, R^2=0.9991). […] From the results, absorbance values and [DPPF.] contents have an inverse relationship, i.e. the less the [DPPH.] content is, the […] the absorbance value will be, which means a stronger radical removing ability.
(3) Antioxidant Activity Detection of the Bioactive Polypeptide DELQ with [DPPH.] Method […]
2) blank group: adding 80 μL 1 mmol/L [DPPF.] methanol solution and 20 μL deionized water into the same 96-hole cell culturing plate for forming a blank group.
After adding the test sample, waiting at the room temperature for 90 min, detecting the absorbance values at 517 nm with the microplate reader, and calculating a radical removing ratio according to a following formula, wherein results thereof are shown in Table 3.

[2] = total antioxidant capacity detection with the FRAP (Ferric Reducing Ability Power) method; format: biochemical; details: sample concentration 4.00 mg/mL
Description: (1) Preparing FRAP Working Fluid:
According to the FRAP detection reagent kit, thorough mixing 7.5 mL TPTZ diluent, 750 μL TPTZ solution, and 750 μL detection buffer, incubating in a 37° C. water bath, and using in 2 h.
(2) Drawing a FeSO4 Standard Curve:
Adding 180 μL FRAP working fluid into the 96-hole cell culturing plate, then adding 5 μL FeSO4 standard curve solution according to Table 4, gently mixing, incubating at 37° C. for 3-5 min, and detecting absorbance values at 593 nm with the microplate reader.
FeSO4 concentration and the absorbance value have a good proportional relationship, i.e. the higher the FeSO4 concentration is, the higher absorbance value will be. According to the present invention, FeSO4 standard curve results are shown in FIG. 10, the standard curve has a good linear relationship, wherein a correlation coefficient thereof is 0.998. Precision and accuracy of the FeSO4 curve satisfy testing requirements, and are applicable for subsequent calculation.
(3) Bioactive Polypeptide DELQ Antioxidant Capacity Detection with FRAP Method
Adding 180 μL FRAP working fluid into the 96-hole cell culturing plate, adding 5 μL ddH2O into a blank control hole, adding 5 μL testing sample into a sample hole, adding 5 μL phytic acid into a positive control, gently mixing, incubating at 37° C. for 3-5 min, and detecting absorbance values at 593 nm with the microplate reader. […]

[3] = simulated in vitro gastrointestinal digestion (pepsin, then pancreatin), UPLC-Q-TOF-MS analysis; format: in vitro ADME; details: 500 μg/mL; pepsin pH 2.0 37° C. 90 min, then pancreatin pH 7.5 37° C. 150 min
Description: The experiment is divided into two steps. Firstly, preparing a 500 μg/mL DELQ solution, adding pepsin with a ratio of 20 mg the pepsin for every gram of the DELQ, adjusting a pH value of the reaction solution to 2.0, reacting with a temperature kept in a 37° C. thermostatic waterbath for 90 min; then adjusting a pH value to 7.5, and adding pancreatin with a ratio of 40 mg the pancreatin for every gram of the DELQ, and reacting with a temperature kept in a 37° C. thermostatic waterbath for 150 min; inactivating disgestive enzymes with a 95° C. waterbath for 5 min; and freeze-drying the reaction solution for obtaining dry powder thereof, and storing at −20° C. for further use.
Picking 0.2 mg powder sample after stimulated in vitro gastrointestinal digestion, adding 50 μL water and 450 μL pure ethanol, thorough shocking before putting into a −20° C. freezer for 20 min, centrifuging at 15000 rpm for 30 min, collecting 400 μL supernatant for UPLC-Q-TOF-MS analysis. […]
According to the above experiment conditions, the bioactive polypeptides DELQ before and after treatment with digestive enzymes are analyzed by UPLC-Q-TOF-MS, a total ion stream obtained is shown in FIG. 11. […]

Question: For `Cc1c(C)c2c(c(C)c1O)CCC(C)(C(=O)O)O2` (stereo not drawn) [Trolox], which “[DPPH.] radical removing rate” value ([1]; positive control 1, 2.5 mg/mL Trolox) is on record?
Answer: Its value is 99.96%.

Question: What about the “[DPPH.] radical removing rate” value ([1]; positive control 2, 0.025 g/mL Trolox) of the same molecule?
Answer: Its value is 71.08 ± 0.03%.

Question: Which results are given for `O=P(O)(O)O[C@H]1[C@H](OP(=O)(O)O)[C@@H](OP(=O)(O)O)[C@H](OP(=O)(O)O)[C@@H](OP(=O)(O)O)[C@H]1OP(=O)(O)O` [phytic acid]?
Answer: [DPPH.] radical removing rate ([1]; negative control, concentration not given): 58.49 ± 0.08%; FRAP [2]: 0.0089 mmol/g; corresponding FeSO4 concentration ([2]; 593 nm): 0.0356 ± 0.0055 mmol/L

Question: With `CC(C)C[C@H](NC(=O)[C@H](CCC(=O)O)NC(=O)[C@@H](N)CC(=O)O)C(=O)N[C@@H](CCC(N)=O)C(=O)O` [DELQ, Asp-Glu-Leu-Gln] (H-DELQ-OH; N-terminus and C-terminus assumed) as the molecule, how does the “stability under simulated in vitro gastrointestinal digestion” value [3] read?
Answer: The value was “stable”.
